Calls of active or inactive are those of the source. How the calls were made is not given here.
System: CCRIS mutagenicity, Ames/micronucleus/aberration tests
Assay: CCRIS mutagenicity studies
[1] = Test System: AMES SALMONELLA TYPHIMURIUM, Strain/Indicator: TA98, Metabolic Activation: NONE, Method: STANDARD PLATE
[2] = Test System: AMES SALMONELLA TYPHIMURIUM, Strain/Indicator: TA98, Metabolic Activation: RAT, LIVER, S-9, AROCLOR 1254, Method: STANDARD PLATE
[3] = Test System: AMES SALMONELLA TYPHIMURIUM, Strain/Indicator: TA98, Metabolic Activation: NONE, Method: PREINCUBATION
[4] = Test System: AMES SALMONELLA TYPHIMURIUM, Strain/Indicator: TA98, Metabolic Activation: RAT LIVER S-9, PHENOBARBITAL AND BETA-NAPHTHOFLAVONE, Method: PREINCUBATION
[5] = Test System: AMES SALMONELLA TYPHIMURIUM, Strain/Indicator: TA100, Metabolic Activation: NONE, Method: PREINCUBATION
[6] = Test System: AMES SALMONELLA TYPHIMURIUM, Strain/Indicator: TA100, Metabolic Activation: RAT LIVER S-9, PHENOBARBITAL AND BETA-NAPHTHOFLAVONE, Method: PREINCUBATION
[7] = Test System: AMES SALMONELLA TYPHIMURIUM, Strain/Indicator: TA1535, Metabolic Activation: NONE, Method: PREINCUBATION
[8] = Test System: AMES SALMONELLA TYPHIMURIUM, Strain/Indicator: TA1535, Metabolic Activation: RAT LIVER S-9, PHENOBARBITAL AND BETA-NAPHTHOFLAVONE, Method: PREINCUBATION
[9] = Test System: AMES SALMONELLA TYPHIMURIUM, Strain/Indicator: TA1537, Metabolic Activation: NONE, Method: PREINCUBATION
[10] = Test System: AMES SALMONELLA TYPHIMURIUM, Strain/Indicator: TA1537, Metabolic Activation: RAT LIVER S-9, PHENOBARBITAL AND BETA-NAPHTHOFLAVONE, Method: PREINCUBATION
[11] = Test System: MOUSE LYMPHOMA, Strain/Indicator: L5178Y (TK+/TK-), Metabolic Activation: NONE, Method: SUSPENSION/PLATE
[12] = Test System: AMES SALMONELLA TYPHIMURIUM, Strain/Indicator: TA100, Metabolic Activation: NONE, Method: STANDARD PLATE

CC1=C(N=O)CNc2c1nc1c(C)cccn21
mutagenic call [1]: active; positive | mutagenic call (Test System: AMES SALMONELLA TYPHIMURIUM, Strain/Indicator: TA98, Metabolic Activation: RAT, LIVER, CYTOSOL, AROCLOR 1254, Method: STANDARD PLATE): active; positive | mutagenic call (Test System: AMES SALMONELLA TYPHIMURIUM, Strain/Indicator: TA98, Metabolic Activation: RAT, LIVER, MICROSOMES, AROCLOR 1254, Method: STANDARD PLATE): active; positive | mutagenic call [2]: active; positive

c1ccncc1
mutagenic call (Test System: AMES SALMONELLA TYPHIMURIUM, Strain/Indicator: TA98, Metabolic Activation: HAMSTER LIVER S-9, AROCLOR 1254, 10%, Method: PREINCUBATION): inactive; negative | mutagenic call [3]: inactive; negative | mutagenic call (Test System: AMES SALMONELLA TYPHIMURIUM, Strain/Indicator: TA98, Metabolic Activation: RAT LIVER S-9, AROCLOR 1254, 10%, Method: PREINCUBATION): inactive; negative | mutagenic call [4]: inactive; negative | mutagenic call (Test System: AMES SALMONELLA TYPHIMURIUM, Strain/Indicator: TA98, Metabolic Activation: RAT, LIVER, S-9, AROCLOR 1254, Method: PREINCUBATION): inactive; negative | mutagenic call (Test System: AMES SALMONELLA TYPHIMURIUM, Strain/Indicator: TA100, Metabolic Activation: HAMSTER LIVER S-9, AROCLOR 1254, 10%, Method: PREINCUBATION): inactive; negative | mutagenic call [5]: inactive; negative | mutagenic call (Test System: AMES SALMONELLA TYPHIMURIUM, Strain/Indicator: TA100, Metabolic Activation: RAT LIVER S-9, AROCLOR 1254, 10%, Method: PREINCUBATION): inactive; negative | mutagenic call [6]: inactive; negative | mutagenic call (Test System: AMES SALMONELLA TYPHIMURIUM, Strain/Indicator: TA100, Metabolic Activation: RAT, LIVER, S-9, AROCLOR 1254, Method: PREINCUBATION): inactive; negative | mutagenic call (Test System: AMES SALMONELLA TYPHIMURIUM, Strain/Indicator: TA102, Metabolic Activation: NONE, Method: PREINCUBATION): inactive; negative | mutagenic call (Test System: AMES SALMONELLA TYPHIMURIUM, Strain/Indicator: TA102, Metabolic Activation: RAT, LIVER, S-9, AROCLOR 1254, Method: PREINCUBATION): inactive; negative | mutagenic call (Test System: AMES SALMONELLA TYPHIMURIUM, Strain/Indicator: TA1535, Metabolic Activation: HAMSTER LIVER S-9, AROCLOR 1254, 10%, Method: PREINCUBATION): inactive; negative | mutagenic call [7]: inactive; negative | mutagenic call (Test System: AMES SALMONELLA TYPHIMURIUM, Strain/Indicator: TA1535, Metabolic Activation: RAT LIVER S-9, AROCLOR 1254, 10%, Method: PREINCUBATION): inactive; negative | mutagenic call [8]: inactive; negative | mutagenic call (Test System: AMES SALMONELLA TYPHIMURIUM, Strain/Indicator: TA1537, Metabolic Activation: HAMSTER LIVER S-9, AROCLOR 1254, 10%, Method: PREINCUBATION): inactive; negative | mutagenic call [9]: inactive; negative | mutagenic call (Test System: AMES SALMONELLA TYPHIMURIUM, Strain/Indicator: TA1537, Metabolic Activation: RAT LIVER S-9, AROCLOR 1254, 10%, Method: PREINCUBATION): inactive; negative | mutagenic call [10]: inactive; negative | mutagenic call (Test System: E.COLI, Strain/Indicator: WP2UVRA, Metabolic Activation: NONE, Method: PREINCUBATION): inactive; negative | mutagenic call (Test System: E.COLI, Strain/Indicator: WP2UVRA, Metabolic Activation: RAT LIVER S-9, PHENOBARBITAL AND BETA-NAPHTHOFLAVONE, Method: PREINCUBATION): inactive; negative | mutagenic call [11]: inactive; negative | mutagenic call (Test System: MOUSE LYMPHOMA, Strain/Indicator: L5178Y (TK+/TK-), Metabolic Activation: RAT LIVER S-9, AROCLOR 1254, Method: SUSPENSION/PLATE): inactive; negative | mutagenic call (Test System: UDS MOUSE HEPATOCYTES, Strain/Indicator: THYMIDINE INCORPORATION, Metabolic Activation: NONE, Method: IN VIVO/AUTORADIOGRAPHY): inactive; negative

COc1cccc2c1C(=O)c1c(O)c3c(c(O)c1C2=O)C[C@@](O)(C(=O)CO)C[C@@H]3O
mutagenic call [1]: active; positive | mutagenic call [2]: active; positive | mutagenic call [12]: active; positive | mutagenic call (Test System: AMES SALMONELLA TYPHIMURIUM, Strain/Indicator: TA1538, Metabolic Activation: NONE, Method: STANDARD PLATE): active; positive

O=C1OCCO1
mutagenic call [3]: inactive; negative | mutagenic call [4]: inactive; negative | mutagenic call [5]: inactive; negative | mutagenic call [6]: inactive; negative | mutagenic call [7]: inactive; negative | mutagenic call [8]: inactive; negative | mutagenic call [9]: inactive; negative | mutagenic call [10]: inactive; negative | mutagenic call (Test System: E.COLI, Strain/Indicator: WP2UVRA/PKM101, Metabolic Activation: NONE, Method: PREINCUBATION): inactive; negative | mutagenic call (Test System: E.COLI, Strain/Indicator: WP2UVRA/PKM101, Metabolic Activation: RAT LIVER S-9, PHENOBARBITAL AND BETA-NAPHTHOFLAVONE, Method: PREINCUBATION): inactive; negative

Cc1ccc(C(C)C)cc1O
mutagenic call [1]: inactive; negative | mutagenic call (Test System: AMES SALMONELLA TYPHIMURIUM, Strain/Indicator: TA98, Metabolic Activation: S-9, Method: STANDARD PLATE): inactive; negative | mutagenic call [12]: inactive; negative | mutagenic call (Test System: AMES SALMONELLA TYPHIMURIUM, Strain/Indicator: TA100, Metabolic Activation: S-9, Method: STANDARD PLATE): inactive; negative

CCCON=O
mutagenic call (Test System: AMES SALMONELLA TYPHIMURIUM, Strain/Indicator: TA98, Metabolic Activation: HAMSTER, LIVER, S-9, AROCLOR 1254, Method: STANDARD PLATE): inactive; negative | mutagenic call [1]: inactive; negative | mutagenic call [2]: inactive; negative | mutagenic call (Test System: AMES SALMONELLA TYPHIMURIUM, Strain/Indicator: TA100, Metabolic Activation: HAMSTER, LIVER, S-9, AROCLOR 1254, Method: STANDARD PLATE): active; positive | mutagenic call [12]: inactive; negative | mutagenic call (Test System: AMES SALMONELLA TYPHIMURIUM, Strain/Indicator: TA100, Metabolic Activation: RAT, LIVER, S-9, AROCLOR 1254, Method: STANDARD PLATE): active; positive | mutagenic call (Test System: AMES SALMONELLA TYPHIMURIUM, Strain/Indicator: TA1535, Metabolic Activation: HAMSTER, LIVER, S-9, AROCLOR 1254, Method: STANDARD PLATE): active; positive | mutagenic call (Test System: AMES SALMONELLA TYPHIMURIUM, Strain/Indicator: TA1535, Metabolic Activation: NONE, Method: STANDARD PLATE): active; positive | mutagenic call (Test System: AMES SALMONELLA TYPHIMURIUM, Strain/Indicator: TA1535, Metabolic Activation: RAT, LIVER, S-9, AROCLOR 1254, Method: STANDARD PLATE): active; positive | mutagenic call (Test System: AMES SALMONELLA TYPHIMURIUM, Strain/Indicator: TA1537, Metabolic Activation: HAMSTER, LIVER, S-9, AROCLOR 1254, Method: STANDARD PLATE): inactive; negative | mutagenic call (Test System: AMES SALMONELLA TYPHIMURIUM, Strain/Indicator: TA1537, Metabolic Activation: NONE, Method: STANDARD PLATE): inactive; negative | mutagenic call (Test System: AMES SALMONELLA TYPHIMURIUM, Strain/Indicator: TA1537, Metabolic Activation: RAT, LIVER, S-9, AROCLOR 1254, Method: STANDARD PLATE): inactive; negative | mutagenic call [11]: active; positive. reevaluation of results: inconclusive | mutagenic call (Test System: MOUSE LYMPHOMA, Strain/Indicator: L5178Y (TK+/TK-), Metabolic Activation: RAT, LIVER, S-9, AROCLOR 1254, Method: SUSPENSION/PLATE): active; positive. reevaluation of results: positive | mutagenic call (Test System: Mouse lymphoma, Strain/Indicator: L5178Y (tk+/tk-), Metabolic Activation: None, Method: Suspension/plate): active; positive | mutagenic call (Test System: Mouse lymphoma, Strain/Indicator: L5178Y (tk+/tk-), Metabolic Activation: Rat, Liver, S-9, Aroclor 1254, Method: Suspension/plate): active; positive
